# From patent US8791099B2, “Transition metal complexes of corroles for preventing cardiovascular diseases or disorders” (Technion Research and Development Foundation Ltd., priority 2007, dated 2014)
# Marks after values point to notes of the source that are not given here.
# What was measured:
# [1] = Oxidation of DMSO to formaldehyde by peroxynitrite; conditions: pH 7.4, T=25°C, yield relative to [PN]0; PN alone 11.5%
# Procedure: The final pH of the solutions was 7.4 and the temperature was maintained at 24° C. After 5 min of stirring, a 0.3 ml NaOH solution (7.8 M) was added to each tube for analyzing the amount of formed formaldehyde. This was immediately followed by supplying the tubes with 0.3 mL of 34.2 mM Purpald® (a color forming reagent for the determination of aldehydes; Aldrich Chemical Co.) in 480 mM HCl; and a second incubation with continuous shaking was performed for 10 min at 24° C. The thus obtained reaction product between formaldehyde and Purpald® was oxidized to a colored compound by the addition of 0.3 mL 470 mM KIO4 in 470 mM NaOH. The absorbance at 550 nm was measured with a spectrophotometer and the amount of formaldehyde was determined by using a standard curve obtained from formaldehyde solutions of known concentrations (a linear curve was obtained by drawing final O.D. at 550 nm versus initial formaldehyde concentrations).
# (§1) These particular molecules were specifically chosen because they represent targets of hydroxyl radical, nitrogen dioxide, and of oxygen transfer reagents. In addition, their reaction products are easily identified and quantified by established methods.
# [2] = Oxidation of deoxyribose to malonyldialdehyde by peroxynitrite; conditions: pH 7.4, T=25°C, yield relative to [PN]0; PN alone 1.7%
# Procedure: 1 mL of 2.8% trichloroacetic acid and 1 mL of 1% thiobarbituric acid in 0.1 M NaOH adjusted to pH 3.5 were sequentially added to 1 mL samples and the absorbance spectra at 532 nm due to the absorbance maximum of the MDA-thiobarbiturate product were recorded as a function of time (0-22 hr) at 24° C.
# as §1
# [3] = Nitration of fluorescein by peroxynitrite; conditions: pH 7.4, T=25°C, relative to [fluorescein]0; PN alone 30%
# Procedure: The changes in fluorescein absorbance were measured on the UV/vis spectrophotometer. The yield of nitration was determined by converting absorbance to changes in concentration of fluorescein and nitrated fluorescein, using pre-determined extinction coefficients. For increased accuracy, the three wavelengths in which the largest changes in absorbance occur were used. The yields were calculated based on the initial substrate concentration.
# as §1
# [4] = Nitration of L-tyrosine by peroxynitrite; conditions: pH 7.4, T=25°C, yield relative to [PN]0; PN alone 11%
# Procedure: e) Nitration of L-tyrosine: Peroxynitrite (0.44 μmol) was reacted with 0.16 μmol of L-tyrosine in 2 mL phosphate buffer solution, pH 7.4 at T=24° C. for 5 min. The concentration of such formed nitrotyrosine was estimated by recording the 438 nm absorbance (ε=4200 M^−1cm^−1) of basified solutions (via the addition of 0.2 ml of 7.8 M NaOH).
# as §1
# [5] = Oxidation of tetramethylene sulfoxide to sulfolane by peroxynitrite
# Procedure: The sulfolane was extracted into diethyl ether after 10 min of stirring and quantified by GC analysis. The same experiment was done at pH 12.7, with a reaction time of 4 hr.
# as §1
# [6] = Oxidation of DMSO by copper sulfate/ascorbate; conditions: CuSO4/ascorbate as initiator; 50 μM corrole, 18 hr
# Procedure: Reaction was initiated by adding a mixture of CuSO4 and phenanthroline (final concentration of 8 μM for each), followed by sodium ascorbate (500 μM). […]
# Additional experiments were carried out by using CuSO4/ascorbate as the initiator of reactive oxygen species (by the complex Fenton-type oxidation that produces hydroxyl radical via the involvement of superoxide anion radical and hydrogen peroxide), as to bridge between the results of the small molecules and those obtained by oxidation of LDL.
# [7] = Decomposition of peroxynitrite, comparison with punicalagin; conditions: for Minimal concentration required for reducing the half lifetime of peroxynitrite by 50%: calculated from rate constants
# Procedure: For initial assessment of possible superiority of the metallocorroles relative to natural antioxidants, we have determined the effect of excess (45-135 μM) punicalagin—the active polyphenolic hydrolysable tannin ingredient of pomegranate juice (Tzulker et al., 2007), on decomposition of peroxynitrite (40 μM).
# LDL = test: Oxidation of LDL by copper sulfate; assay type: biochemical, human; conditions: for Increased damage (TBARS): corrole 0.5 μM
# Procedure: Oxidation was initiated by addition of a freshly prepared CuSO4 solution (5 μM) and incubation at 37° C. under air in a shaking water bath was continued for 2 h (LDL) or 5 h (HDL). Lipoprotein oxidation was determined by measuring the amount of TBARS (Aviram et al. 2001).
# Conjugated dienes formation was continuously monitored for 165 min while TBARS and lipid peroxides (Aviram et al. 2001) were measured after 15, 30, 45, 60, 75, 90, 120 and 165 minutes.
# The more commonly used copper-induced LDL oxidation protocol was also applied. […] This may be appreciated from FIGS. 3A-3C, which show the time course of stepwise formation of conjugated dienes, hydroperoxides, and aldehydes (2.5 μM of metal corrole). […] The total amount of hydroperoxides rapidly reached a maximum at 45 min (due to its subsequent transformation to the final aldehyde products) and the total concentration of aldehydes was increased by a factor of 3 relative to the control experiment. […] Similar results were obtained for HDL oxidation.
# The dependence of LDL oxidation on the corrole concentration was examined by analyses performed 2 hours after oxidation initiation by the copper ion (FIG. 4A).
# [8] = tested on: Apolipoprotein E deficient mice (E^0 mice); test: Histopathology of aortic atherosclerosis lesions in E^0 mice; assay type: in vivo; conditions: oral, drinking water 0.04 mM (0.2 mg per mouse per day), 10 weeks; for Decrease in average lesion area relative to the control group: 1-Fe: mean of the four mice with lesions
# Description: At the end of the experiment, the mice were sacrificed and each heart and entire aorta were rapidly dissected out from each mouse and immersion-fixed in 3% glutaraldehyde in 0.1 mol/L sodium cacodylate buffer with 0.01% calcium chloride, pH 7.4, at room temperature. The first 4 mm of the aortic arch was stained with osmium tetroxide, which colors all the lipid components a dark brown-black color thus enabling delineation of the lesion with greater accuracy. The blocks were embedded in epon resin and thin transverse sections were cut to allow greater resolution of the lesion details. The area covered by the lesion was determined by image analysis (Coleman et al., 2006).
# Two of the mice receiving that treatment did actually not develop atherosclerotic lesions at all and the average lesion area for the other four mice was 60% smaller than that obtained for the control mice. These observations are much better than those obtained by other methods, including E^0 mice that were treated by natural anti-oxidants (48% reduction when consuming red wine (Hayek et al., 1997; Fuhrman et al., 1995) and 44% for pomegranate juice (Aviram et al., 2000)) or those that were intraperitoneally-treated with different synthetic catalysts for decomposition of reactive oxygen species.
# [9] = tested on: Apolipoprotein E deficient mice (E^0 mice); test: Serum total cholesterol in E^0 mice; assay type: in vivo; conditions: drinking water 0.04 mM (0.2 mg per mouse per day), 10 weeks
# Description: a) For atherosclerosis evaluation: At an age of about 10 weeks, 24 E^0 mice were randomly divided into 4 groups of 6 mice each.
# The sacrificed mice were also examined with regard to other factors relevant to the development of atherosclerosis.
# [10] = pH 7.4, T=25°C, yield relative to [PN]0, PN alone 3.14%
# [11] = pH 12.7, yield relative to [PN]0, PN alone 83%
SMILES,Yield of formaldehyde from DMSO [1] [%],Yield of malonyldialdehyde from deoxyribose [2] [%],Yield of nitrofluorescein from fluorescein [3],Yield of L-nitrotyrosine from L-tyrosine [4] [%],"Yield of sulfolane from tetramethylenesulfoxide [5, 10]","Yield of sulfolane from tetramethylenesulfoxide [5, 11]",Inhibition of the oxidation of DMSO to malonaldehyde [6],Times more effective than punicalagin in peroxynitrite decomposition [7] [times],Minimal concentration required for reducing the half lifetime of peroxynitrite by 50% [7] [mol %],Increased damage (TBARS) (LDL; 2 hours after CuSO4),Decrease in average lesion area relative to the control group [8] [%],Total serum cholesterol lower than in the control group [9] [%],also measured
"O=S(=O)(O)c1cc2[n]3c1C(c1c(F)c(F)c(F)c(F)c1F)=C1C=CC4=[N+]1[Fe-]31[n]3c(cc(S(=O)(=O)O)c3-2)C(c2c(F)c(F)c(F)c(F)c2F)=c2ccc([n]21)=C4c1c(F)c(F)c(F)c(F)c1F (stereo not drawn) [1-Fe, 5,10,15-tris(pentafluorophenyl)-2,17-bis(sulfonic acid)-corrolato iron(III)]",0,0,4%^(a),11,0.1%^,0.4%^(b),completely,5000,0.05,minor increase in TBARS,60,40,"Aldehydes formation after 24 hours (LDL; 2.5 μM corrole, 5 μM CuSO4): no aldehydes were formed; Damage by all three criteria (conjugated dienes, hydroperoxides, aldehydes) (LDL; 2.5 μM corrole, 5 μM CuSO4): practically no damage; Fold by which the manganese porphyrin concentration for 100% inhibition exceeds the 1-Fe concentration for full inhibition (LDL; 100 μM vs 2.5 μM): 40 fold; Concentration giving full inhibition of LDL oxidation (LDL; copper-induced LDL oxidation): 2.5 µM; Effect on TBARS formation (LDL; corrole 2.5 μM and higher, 2 hours after CuSO4): complete inhibition; Mice (of six) that did not develop atherosclerotic lesions at all [8]: Two and two"
"O=S(=O)(O)c1cc2[n]3c1C(c1c(F)c(F)c(F)c(F)c1F)=C1C=CC4=[N+]1[Mn-]31[n]3c(cc(S(=O)(=O)O)c3-2)C(c2c(F)c(F)c(F)c(F)c2F)=c2ccc([n]21)=C4c1c(F)c(F)c(F)c(F)c1F (stereo not drawn) [1-Mn, 5,10,15-tris(pentafluorophenyl)-2,17-bis(sulfonic acid)-corrolato manganese(III)]",0,0,0%,0,0.18%,0.6%^(b),65%,100,2.5,about 150%,17,26,"Factor of increase of total concentration of aldehydes relative to control (LDL; 2.5 μM corrole, 5 μM CuSO4): 3; Time at which total hydroperoxides reached a maximum (LDL; 2.5 μM corrole, 5 μM CuSO4): 45 min; Delay in formation of conjugated dienes (LDL; 2.5 μM corrole, 5 μM CuSO4, control 30 minutes): 15 min"
